Results reported in PubChem BioAssay (NCI).
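Compound exposure: 48 hours, 5 concentrations, 96-well plates. TGI marks complete inhibition of growth.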

Key:
Test in all cases: NCI tumour cell line growth inhibition, 48 h
DMS 273 small cell lung = system: DMS 273 small cell lung
EKVX NSCLC = system: EKVX NSCLC
SNB-75 CNS = system: SNB-75 CNS
SW-620 colon = system: SW-620 colon
NCI-H522 lung = system: NCI-H522 lung
SNB-78 CNS = system: SNB-78 CNS
HOP-62 NSCLC = system: HOP-62 NSCLC
IGROV1 ovarian = system: IGROV1 ovarian
M19-MEL melanoma = system: M19-MEL melanoma
LOX IMVI melanoma = system: LOX IMVI melanoma
CCRF-CEM leukemia = system: CCRF-CEM leukemia
SK-MEL-5 melanoma = system: SK-MEL-5 melanoma
HL-60(TB) leukemia = system: HL-60(TB) leukemia
SNB-19 CNS = system: SNB-19 CNS
SK-MEL-2 melanoma = system: SK-MEL-2 melanoma
OVCAR-3 ovarian = system: OVCAR-3 ovarian
A498 renal = system: A498 renal
HT29 colon = system: HT29 colon
A549 NSCLC = system: A549 NSCLC
KM20L2 colon = system: KM20L2 colon
P388 leukemia = system: P388 leukemia
NCI/ADR-RES ovarian = system: NCI/ADR-RES ovarian
UACC-257 melanoma = system: UACC-257 melanoma
NCI-H226 lung = system: NCI-H226 lung
OVCAR-8 ovarian = system: OVCAR-8 ovarian
OVCAR-4 ovarian = system: OVCAR-4 ovarian
COLO 205 colon = system: COLO 205 colon
DLD-1 colon = system: DLD-1 colon
CAKI-1 renal = system: CAKI-1 renal
HOP-92 NSCLC = system: HOP-92 NSCLC
SF-539 CNS = system: SF-539 CNS
NCI-H23 lung = system: NCI-H23 lung
MCF7 breast = system: MCF7 breast
UACC-62 melanoma = system: UACC-62 melanoma
HCT-116 colon = system: HCT-116 colon
MOLT-4 leukemia = system: MOLT-4 leukemia
SN12K1 renal = system: SN12K1 renal
XF 498 CNS = system: XF 498 CNS
SK-MEL-28 melanoma = system: SK-MEL-28 melanoma
NCI-H460 lung = system: NCI-H460 lung
OVCAR-5 ovarian = system: OVCAR-5 ovarian
HCC-2998 colon = system: HCC-2998 colon
U251 CNS = system: U251 CNS
SF-268 CNS = system: SF-268 CNS
SK-OV-3 ovarian = system: SK-OV-3 ovarian
SF-295 CNS = system: SF-295 CNS
UO-31 renal = system: UO-31 renal
RXF 393 renal = system: RXF 393 renal
P388/ADR leukemia = system: P388/ADR leukemia
HCT-15 colon = system: HCT-15 colon
KM12 colon = system: KM12 colon
MALME-3M melanoma = system: MALME-3M melanoma
SN12C renal = system: SN12C renal
DMS 114 small cell lung = system: DMS 114 small cell lung
RPMI-8226 leukemia = system: RPMI-8226 leukemia
HOP-18 NSCLC = system: HOP-18 NSCLC
K-562 leukemia = system: K-562 leukemia
786-0 renal = system: 786-0 renal
M14 melanoma = system: M14 melanoma
TK-10 renal = system: TK-10 renal
RXF-631 renal = system: RXF-631 renal
LXFL 529 NSCLC = system: LXFL 529 NSCLC
SR leukemia = system: SR leukemia
ACHN renal = system: ACHN renal

Compound CCCNC1=C(C)C(=O)C2=C(C1=O)[C@H](COC(N)=O)[C@]1(OC)[C@@H]3N[C@@H]3CN21 has a TGI (DMS 273 small cell lung) of 15.8 µM, a TGI (EKVX NSCLC) of 27.4 µM and a TGI (SNB-75 CNS) of 24.6 µM. For the same compound, the TGI (SW-620 colon) was 113 µM, the TGI (NCI-H522 lung) was 12.5 µM and the TGI (SNB-78 CNS) was 158 µM. It also gave a TGI (HOP-62 NSCLC) of 4.42 µM, a TGI (IGROV1 ovarian) of 33.3 µM and a TGI (M19-MEL melanoma) of 27.3 µM. The TGI (LOX IMVI melanoma) was 19.1 µM, the TGI (CCRF-CEM leukemia) was 185 µM and the TGI (SK-MEL-5 melanoma) was 2.65 µM. The TGI (HL-60(TB) leukemia) was 19.4 µM, the TGI (SNB-19 CNS) was 45.4 µM and the TGI (SK-MEL-2 melanoma) was 34.3 µM. It also gave a TGI (OVCAR-3 ovarian) of 55.3 µM, a TGI (A498 renal) of 13.6 µM and a TGI (HT29 colon) of 94.3 µM. The TGI (A549 NSCLC) was 8.69 µM, the TGI (KM20L2 colon) was 121 µM and the TGI (P388 leukemia) was 39.2 µM. The TGI (NCI/ADR-RES ovarian) was 300 µM, the TGI (UACC-257 melanoma) was 38.9 µM and the TGI (NCI-H226 lung) was 34 µM. The TGI (OVCAR-8 ovarian) was 53 µM, the TGI (OVCAR-4 ovarian) was 19.3 µM and the TGI (COLO 205 colon) was 45 µM. For the same compound, the TGI (DLD-1 colon) was 79.9 µM, the TGI (CAKI-1 renal) was 84.5 µM and the TGI (HOP-92 NSCLC) was 43.9 µM. For the same compound, the TGI (SF-539 CNS) was 45.3 µM, the TGI (NCI-H23 lung) was 12.5 µM and the TGI (MCF7 breast) was 4.15 µM. For the same compound, the TGI (UACC-62 melanoma) was 5.74 µM, the TGI (HCT-116 colon) was 32.2 µM and the TGI (MOLT-4 leukemia) was 31.3 µM. For the same compound, the TGI (SN12K1 renal) was 44.1 µM, the TGI (XF 498 CNS) was 15.3 µM and the TGI (SK-MEL-28 melanoma) was 87.8 µM. It also gave a TGI (NCI-H460 lung) of 4.17 µM, a TGI (OVCAR-5 ovarian) of 92.4 µM and a TGI (HCC-2998 colon) of 20.6 µM. For the same compound, the TGI (U251 CNS) was 40.6 µM, the TGI (SF-268 CNS) was 77.9 µM and the TGI (SK-OV-3 ovarian) was 170 µM. The TGI (SF-295 CNS) was 39.7 µM, the TGI (UO-31 renal) was 67.3 µM and the TGI (RXF 393 renal) was 46.4 µM. For the same compound, the TGI (P388/ADR leukemia) was 54.7 µM, the TGI (HCT-15 colon) was 72 µM and the TGI (KM12 colon) was 56.1 µM. For the same compound, the TGI (MALME-3M melanoma) was 26.5 µM, the TGI (SN12C renal) was 69.2 µM and the TGI (DMS 114 small cell lung) was 59 µM. It also gave a TGI (RPMI-8226 leukemia) of 73.9 µM, a TGI (HOP-18 NSCLC) of 53.4 µM and a TGI (K-562 leukemia) of 174 µM.

With COc1cc([C@@H]2c3cc4c(c(O[C@@H]5O[C@H]6CO[C@@H](C)O[C@H]6[C@H](O)[C@@H]5O)c3C[C@H]3COC(=O)[C@@H]32)OCO4)cc(OC)c1O the TGI (DMS 273 small cell lung) was greater than 100 µM, the TGI (EKVX NSCLC) was greater than 100 µM and the TGI (SNB-75 CNS) was greater than 100 µM. The TGI (SW-620 colon) was greater than 100 µM, the TGI (NCI-H522 lung) was 6.42 µM and the TGI (SNB-78 CNS) was greater than 100 µM. It also gave a TGI (HOP-62 NSCLC) greater than 100 µM, a TGI (IGROV1 ovarian) greater than 100 µM and a TGI (M19-MEL melanoma) greater than 100 µM. For the same compound, the TGI (LOX IMVI melanoma) was greater than 100 µM, the TGI (CCRF-CEM leukemia) was greater than 100 µM and the TGI (SK-MEL-5 melanoma) was greater than 100 µM. The TGI (HL-60(TB) leukemia) was greater than 38.9 µM, the TGI (SNB-19 CNS) was greater than 100 µM and the TGI (SK-MEL-2 melanoma) was greater than 100 µM. It also gave a TGI (OVCAR-3 ovarian) of 20.6 µM, a TGI (A498 renal) greater than 100 µM and a TGI (HT29 colon) greater than 100 µM. The TGI (A549 NSCLC) was greater than 100 µM, the TGI (KM20L2 colon) was greater than 100 µM and the TGI (P388 leukemia) was 4.82 µM. For the same compound, the TGI (NCI/ADR-RES ovarian) was 37.1 µM, the TGI (UACC-257 melanoma) was greater than 100 µM and the TGI (NCI-H226 lung) was 20.8 µM. For the same compound, the TGI (OVCAR-8 ovarian) was greater than 100 µM, the TGI (OVCAR-4 ovarian) was greater than 53.3 µM and the TGI (COLO 205 colon) was greater than 100 µM. The TGI (DLD-1 colon) was greater than 100 µM, the TGI (HOP-92 NSCLC) was greater than 100 µM and the TGI (SF-539 CNS) was 7.79 µM. The TGI (NCI-H23 lung) was greater than 100 µM, the TGI (MCF7 breast) was greater than 100 µM and the TGI (UACC-62 melanoma) was greater than 100 µM. It also gave a TGI (HCT-116 colon) greater than 44.6 µM, a TGI (MOLT-4 leukemia) greater than 100 µM and a TGI (SN12K1 renal) greater than 45.1 µM. For the same compound, the TGI (XF 498 CNS) was greater than 100 µM, the TGI (SK-MEL-28 melanoma) was greater than 100 µM and the TGI (NCI-H460 lung) was greater than 100 µM. For the same compound, the TGI (OVCAR-5 ovarian) was greater than 100 µM, the TGI (HCC-2998 colon) was greater than 81.1 µM and the TGI (U251 CNS) was greater than 46.8 µM. It also gave a TGI (SF-268 CNS) greater than 79.5 µM, a TGI (SK-OV-3 ovarian) greater than 92.9 µM and a TGI (SF-295 CNS) of 22.5 µM. It also gave a TGI (UO-31 renal) greater than 100 µM, a TGI (RXF 393 renal) greater than 100 µM and a TGI (HCT-15 colon) greater than 100 µM. The TGI (KM12 colon) was greater than 79.6 µM, the TGI (MALME-3M melanoma) was greater than 100 µM and the TGI (SN12C renal) was greater than 100 µM. It also gave a TGI (DMS 114 small cell lung) greater than 31.1 µM, a TGI (RPMI-8226 leukemia) greater than 100 µM and a TGI (HOP-18 NSCLC) greater than 100 µM. For the same compound, the TGI (K-562 leukemia) was greater than 100 µM.

O=C(O)/C=C\C(=O)c1ccc(Cl)cc1 gave a TGI (DMS 273 small cell lung) greater than 31.6 µM, a TGI (EKVX NSCLC) greater than 94 µM and a TGI (SNB-75 CNS) greater than 79 µM. For the same compound, the TGI (SW-620 colon) was 50.1 µM, the TGI (NCI-H522 lung) was greater than 100 µM and the TGI (SNB-78 CNS) was greater than 100 µM. The TGI (HOP-62 NSCLC) was greater than 100 µM, the TGI (IGROV1 ovarian) was greater than 100 µM and the TGI (M19-MEL melanoma) was 55.8 µM. For the same compound, the TGI (LOX IMVI melanoma) was greater than 61.7 µM, the TGI (CCRF-CEM leukemia) was 48.7 µM and the TGI (786-0 renal) was greater than 78.7 µM. It also gave a TGI (M14 melanoma) of 33.2 µM, a TGI (SK-MEL-5 melanoma) greater than 100 µM and a TGI (HL-60(TB) leukemia) of 58.5 µM. The TGI (SNB-19 CNS) was greater than 100 µM, the TGI (SK-MEL-2 melanoma) was greater than 76.8 µM and the TGI (TK-10 renal) was greater than 100 µM. It also gave a TGI (OVCAR-3 ovarian) greater than 73.3 µM, a TGI (A498 renal) greater than 100 µM and a TGI (HT29 colon) greater than 64.9 µM. It also gave a TGI (A549 NSCLC) greater than 100 µM, a TGI (KM20L2 colon) greater than 74.7 µM and a TGI (RXF-631 renal) greater than 100 µM. The TGI (UACC-257 melanoma) was 38 µM, the TGI (NCI-H226 lung) was greater than 87.6 µM and the TGI (OVCAR-8 ovarian) was greater than 100 µM. The TGI (OVCAR-4 ovarian) was greater than 100 µM, the TGI (COLO 205 colon) was 34.9 µM and the TGI (DLD-1 colon) was greater than 100 µM. The TGI (LXFL 529 NSCLC) was 48.4 µM, the TGI (SR leukemia) was 52.2 µM and the TGI (CAKI-1 renal) was 47.2 µM. It also gave a TGI (HOP-92 NSCLC) of 47.8 µM, a TGI (SF-539 CNS) of 54.2 µM and a TGI (NCI-H23 lung) greater than 86.7 µM. For the same compound, the TGI (UACC-62 melanoma) was greater than 75.4 µM, the TGI (HCT-116 colon) was greater than 58.8 µM and the TGI (MOLT-4 leukemia) was 49 µM. The TGI (XF 498 CNS) was greater than 76.6 µM, the TGI (SK-MEL-28 melanoma) was 34.7 µM and the TGI (NCI-H460 lung) was greater than 100 µM. For the same compound, the TGI (OVCAR-5 ovarian) was greater than 100 µM, the TGI (HCC-2998 colon) was greater than 100 µM and the TGI (U251 CNS) was greater than 100 µM. It also gave a TGI (SF-268 CNS) greater than 71.1 µM, a TGI (SK-OV-3 ovarian) greater than 100 µM and a TGI (SF-295 CNS) greater than 100 µM. The TGI (UO-31 renal) was 99.8 µM, the TGI (RXF 393 renal) was 40.5 µM and the TGI (HCT-15 colon) was 50.2 µM. It also gave a TGI (KM12 colon) of 98.9 µM, a TGI (ACHN renal) of 73.3 µM and a TGI (MALME-3M melanoma) of 34.5 µM. It also gave a TGI (SN12C renal) greater than 100 µM, a TGI (DMS 114 small cell lung) of 55.4 µM and a TGI (RPMI-8226 leukemia) of 66.7 µM. The TGI (HOP-18 NSCLC) was greater than 100 µM and the TGI (K-562 leukemia) was 82.8 µM.
